Where a name gives a salt, the structure may show the parent alone. Some results are limits rather than exact numbers.

This note sets out measurements from patent US6949648B2, “Condensed pyrazole derivatives, process for producing the same and use thereof” (Takeda Pharmaceutical Company Limited, priority 2000, dated 2005).

Compound `Cc1nn(-c2ccccn2)c2[nH]c3cc([N+](=O)[O-])ccc3c(=O)c12` [Example 2-58, 3-Methyl-7-nitro-1-(2-pyridinyl)-1,9-dihydro-4H-pyrazolo[3,4-b]quinolin-4-one] yielded a melting point greater than 300 °C.
The result for `Cc1nn(Cc2ccccn2)c2nc3ccccc3c(N)c12` (as salt: salt) [Example 2-187, 3-Methyl-1-(2-pyridinylmethyl)-1H-pyrazolo[3,4-b]quinolin-4-ylamine] reads 262 to 265 °C.
Next, `Cc1nn(-c2ccccn2)c2nc3ccccc3c(C#N)c12` [Example 2-107, 3-Methyl-1-(2-pyridinyl)-1H-pyrazolo[3,4-b]quinoline-4-carbonitrile]: 210 to 211 °C; `Cc1nn(-c2ccccn2)c2nc(O)c3c(c12)CCCCC3` [Example 1-30, 1-Methyl-3-(2-pyridinyl)-3,6,7,8,9,10-hexahydrocyclohepta[d]pyrazolo[3,4-b]pyridin-5-ol]: 243 to 244 °C.
Regarding `Cc1nn(-c2ccccn2)c2ncc(C(=O)Nc3ccc(F)c(F)c3)c(O)c12` [Example 1-15, N-(3,4-Difluorophenyl)-4-hydroxy-3-methyl-1-(2-pyridinyl)-1H-pyrazolo[3,4-b]pyridine-5-carboxamide], the melting point is greater than 300 °C.
The result for `Cc1ccc(-n2nc(C)c3c(Cl)c4ccccc4nc32)nc1` [Example 2-115, 4-Chloro-3-methyl-1-(5-methyl-2-pyridinyl)-1H-pyrazolo[3,4-b]quinoline] reads 197 to 200 °C; that for `Cc1nn(-c2ccccn2)c2nc(O)c3c(c12)CCC3` [Example 1-28, 1-Methyl-3-(2-pyridinyl)-3,6,7,8-tetrahydrocyclopenta[d]pyrazolo[3,4-b]pyridin-5-ol], 255 to 256 °C.
The result for `COc1cccc2c(N)c3c(C)nn(-c4ccccn4)c3nc12.Cl` reads 248 to 251 °C; that for `Cc1cccc(-n2nc(C)c3c(=O)c4cc(F)c(F)cc4[nH]c32)n1` [Example 2-209, 6,7-Difluoro-3-methyl-1-(6-methyl-2-pyridinyl)-1,9-dihydro-4H-pyrazolo[3,4-b]quinolin-4-one], 301 to 302 °C; that for `CCOc1cccc(-n2nc(C)c3c(Cl)c4c(C)cccc4nc32)n1` [Example 2-121, 4-Chloro-3,5-dimethyl-1-(6-ethoxy-2-pyridinyl)-1H-pyrazolo[3,4-b]quinoline], 146 to 148 °C.
`Cc1nn(-c2ccccn2)c2[nH]c3ccc([N+](=O)[O-])cc3c(=O)c12` [Example 2-54, 3-Methyl-6-nitro-1-(2-pyridinyl)-1,9-dihydro-4H-pyrazolo[3,4-b]quinolin-4-one] displayed a melting point greater than 300 °C.
The result for `Cc1nn(-c2ccccn2)c2nc3c(F)cccc3c(Cl)c12` [Example 2-84, 4-Chloro-8-fluoro-3-methyl-1-(2-pyridinyl)-1H-pyrazolo[3,4-b]quinoline] reads 191 °C.
Next, `Cc1nn(-c2ccccn2)c2nc3cc(Cl)c(F)cc3c(Cl)c12` [Example 2-96, 4,7-Dichloro-6-fluoro-3-methyl-1-(2-pyridinyl)-1H-pyrazolo[3,4-b]quinoline]: 214 to 215 °C; `CCOC(=O)c1cnc2c(cnn2-c2ccccn2)c1O` [Example 1-6, Ethyl 4-hydroxy-1-(2-pyridinyl)-1H-pyrazolo[3,4-b]pyridine-5-carboxylate]: 195 to 197 °C; `CCCn1c2cc(F)c(F)cc2c(=O)c2c(C)nn(-c3ccccn3)c21` [Example 2-93, 6,7-Difluoro-3-methyl-9-propyl-1-(2-pyridinyl)-1,9-dihydro-4H-pyrazolo[3,4-b]quinolin-4-one]: 198 to 200 °C.
`COc1ccc2nc3c(c(C)nn3-c3ccccn3)c(Cl)c2c1` [Example 2-41, 4-Chloro-6-methoxy-3-methyl-1-(2-pyridinyl)-1H-pyrazolo[3,4-b]quinoline] gave a melting point of 186 to 187 °C.
The result for `Cc1cccc2c(Cl)c3c(C)nn(-c4ccccn4)c3nc12` [Example 2-35, 4-Chloro-3,8-dimethyl-1-(2-pyridinyl)-1H-pyrazolo[3,4-b]quinoline] reads 170 to 172 °C.
The result for `Cc1nn(-c2ccccn2)c2[nH]c3cc(Cl)ccc3c(=O)c12` [Example 2-74, 7-Chloro-3-methyl-1-(2-pyridinyl)-1,9-dihydro-4H-pyrazolo[3,4-b]quinolin-4-one] reads 274 to 275 °C; that for `Cc1nn(-c2ccccn2)c2nc3cc([N+](=O)[O-])ccc3c(Cl)c12` [Example 2-57, 4-Chloro-3-methyl-7-nitro-1-(2-pyridinyl)-1H-pyrazolo[3,4-b]quinoline], 226 to 227 °C; that for `COc1ccc2nc3c(c(C)nn3-c3ccccn3)c(N)c2c1` [Example 2-42, 6-Methoxy-3-methyl-1-(2-pyridinyl)-1H-pyrazolo[3,4-b]quinolin-4-ylamine], 267 to 268 °C.
Next, `Cc1nn(-c2ccccn2)c2ncc(C(=O)c3ccccc3)c(O)c12` [Example 1-4, [4-Hydroxy-3-methyl-1-(2-pyridinyl)-1H-pyrazolo[3,4-b]pyridin-5-yl]phenylmethanone]: 224 to 226 °C; `Cc1nn(-c2cccnc2)c2nc3ccccc3c(N)c12.Cl.Cl`: 234 to 237 °C.
Consider `O=c1c2cc(F)ccc2[nH]c2c1cnn2-c1ccccn1` (as salt: salt) [Example 2-165, 6-Fluoro-1-(2-pyridinyl)-1,9-dihydro-4H-pyrazolo[3,4-b]quinolin-4-one], for which the melting point lay in the range of 263 to 266 °C.
The result for `Cc1nn(-c2ccncc2)c2nc3ccccc3c(Cl)c12` [Example 2-140, 4-Chloro-3-methyl-1-(4-pyridinyl)-1H-pyrazolo[3,4-b]quinoline] reads 165 to 168 °C; that for `Cc1nn(-c2ccccn2)c2[nH]c3ccc(C(=O)O)cc3c(=O)c12` [Example 2-65, 3-Methyl-4-oxo-1-(2-pyridinyl)-4,9-dihydro-1H-pyrazolo[3,4-b]quinoline-6-carboxylic acid], greater than 300 °C; that for `COc1cccc(-n2nc(C)c3c(N)c4cccc(C)c4nc32)n1` [Example 2-127, 3,8-Dimethyl-1-(6-methoxy-2-pyridinyl)-1H-pyrazolo[3,4-b]quinolin-4-ylamine], 134 to 137 °C.
`Cc1nn(-c2ccccn2)c2nc3ccccc3c(N3CCOCC3)c12` [Example 2-11, 3-Methyl-4-(4-morpholinyl)-1-(2-pyridinyl)-1H-pyrazolo[3,4-b]quinoline]: the melting point was 203 to 205 °C.
Next, `COc1c2ccccc2nc2c1c(C)nn2-c1cccnc1` [Example 2-139, 4-Methoxy-3-methyl-1-(3-pyridinyl)-1H-pyrazolo[3,4-b]quinoline]: 126 to 128 °C; `CCOc1cccc(-n2nc(C)c3c(Cl)c4cccc(C)c4nc32)n1` [Example 2-128, 4-Chloro-3,8-dimethyl-1-(6-ethoxy-2-pyridinyl)-1H-pyrazolo[3,4-b]quinoline]: 151 to 153 °C.
The result for `O=c1c2ccccc2[nH]c2c1c(-c1ccccc1)nn2-c1ccccn1` [Example 2-182, 3-Phenyl-1-(2-pyridinyl)-1,9-dihydro-4H-pyrazolo[3,4-b]quinolin-4-one] reads 237 to 240 °C.
Next, `Cc1nn(-c2ccccn2)c2ncc(C(=O)Nc3ccccc3F)c(O)c12` [Example 1-12, N-(2-Fluorophenyl)-4-hydroxy-3-methyl-1-(2-pyridinyl)-1H-pyrazolo[3,4-b]pyridine-5-carboxamide]: greater than 300 °C; `Cc1cccnc1-n1nc(C)c2c(=O)c3c(C)cccc3[nH]c21` [Example 2-125, 3,5-Dimethyl-1-(3-methyl-2-pyridinyl)-1,9-dihydro-4H-pyrazolo[3,4-b]quinolin-4-one]: 195 to 197 °C.
The compound `Cc1cccnc1-n1nc(C)c2c(=O)c3cccc(C)c3[nH]c21` (as salt: salt) [Example 2-135, 3,8-Dimethyl-1-(3-methyl-2-pyridinyl)-1,9-dihydro-4H-pyrazolo[3,4-b]quinolin-4-one] registered a melting point of 193 to 195 °C.
Next, `COC(=O)c1ccc2c(=O)c3c(C)nn(-c4ccccn4)c3[nH]c2c1` [Example 2-67, Methyl 3-methyl-4-oxo-1-(2-pyridinyl)-4,9-dihydro-1H-pyrazolo[3,4-b]quinoline-7-carboxylate]: 251 to 252 °C.
Next, `Cc1nn(-c2ccncc2)c2nc3ccccc3c(N(C)C)c12` [Example 2-142, N,N-Dimethyl-N-[3-methyl-1-(4-pyridinyl)-1H-pyrazolo[3,4-b]quinolin-4-yl]amine]: 155 to 156 °C.
Next, `Cc1nn(-c2cccc(Cl)n2)c2nc3ccccc3c(Cl)c12` [Example 2-109, 4-Chloro-1-(6-chloro-2-pyridinyl)-3-methyl-1H-pyrazolo[3,4-b]quinoline]: 191 to 193 °C.
In turn, `Cc1nn(-c2ccncc2)c2[nH]c3ccccc3c(=O)c12` [Example 2-143, 3-Methyl-1-(4-pyridinyl)-1,9-dihydro-4H-pyrazolo[3,4-b]quinolin-4-one] had a melting point greater than 300 °C.
Next, `Cc1nn(-c2ccccn2)c2[nH]c3cc(Cl)c(F)cc3c(=O)c12` [Example 2-97, 7-Chloro-6-fluoro-3-methyl-1-(2-pyridinyl)-1,9-dihydro-4H-pyrazolo[3,4-b]quinolin-4-one]: 264 to 265 °C; `COc1cc2[nH]c3c(c(C)nn3-c3ccccn3)c(=O)c2cc1OC` [Example 2-48, 6,7-Dimethoxy-3-methyl-1-(2-pyridinyl)-1,9-dihydro-4H-pyrazolo[3,4-b]quinolin-4-one]: 238 to 239 °C.
`Cc1nn(-c2ccccn2)c2nc3ccccc3c(OCC(C)C)c12` [Example 2-20, 4-Isobutoxy-3-methyl-1-(2-pyridinyl)-1H-pyrazolo[3,4-b]quinoline] gave a melting point of 117 to 120 °C.
The result for `CCCCNc1c2ccccc2nc2c1c(C)nn2-c1ccccn1` [Example 2-7, N-Butyl-N-[3-methyl-1-(2-pyridinyl)-1H-pyrazolo[3,4-b]quinolin-4-yl]amine] reads 97 to 99 °C.
